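Method: 48-hour compound exposure of cells in 96-well plates, five concentrations, linear interpolation of endpoints. TGI denotes the concentration required for complete inhibition of growth.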
Key:
Assay in all cases: NCI-60 cell line screen, 48 h
[1] = test system: UO-31 renal
[2] = test system: NCI-H23 lung
[3] = test system: U251 CNS
[4] = test system: HCT-116 colon
[5] = test system: SK-MEL-5 melanoma
[6] = test system: MDA-MB-435
[7] = test system: MCF7 breast
[8] = test system: HL-60(TB) leukemia
[9] = test system: COLO 205 colon
[10] = test system: K-562 leukemia
[11] = test system: HT29 colon
[12] = test system: KM12 colon
[13] = test system: SNB-19 CNS
[14] = test system: M14 melanoma
[15] = test system: SF-295 CNS
[16] = test system: SK-MEL-2 melanoma
[17] = test system: ACHN renal
[18] = test system: SF-539 CNS
[19] = test system: SN12C renal
[20] = test system: CCRF-CEM leukemia
[21] = test system: MDA-N
[22] = test system: DU-145 prostate
[23] = test system: RXF 393 renal
[24] = test system: OVCAR-8 ovarian
[25] = test system: T-47D breast
[26] = test system: SK-MEL-28 melanoma
[27] = test system: LOX IMVI melanoma
[28] = test system: SW-620 colon
[29] = test system: CAKI-1 renal
[30] = test system: NCI-H460 lung
[31] = test system: HOP-92 NSCLC
[32] = test system: TK-10 renal
[33] = test system: IGROV1 ovarian
[34] = test system: SF-268 CNS
[35] = test system: NCI-H226 lung
[36] = test system: BT-549 breast
[37] = test system: HS 578T breast
[38] = test system: HOP-62 NSCLC
[39] = test system: NCI-H522 lung
[40] = test system: A498 renal
[41] = test system: UACC-257 melanoma
[42] = test system: SK-OV-3 ovarian
[43] = test system: PC-3 prostate
[44] = test system: NCI/ADR-RES ovarian
[45] = test system: HCC-2998 colon
[46] = test system: MALME-3M melanoma
[47] = test system: OVCAR-5 ovarian
[48] = test system: MDA-MB-231 breast
[49] = test system: MOLT-4 leukemia
[50] = test system: A549 NSCLC
[51] = test system: OVCAR-4 ovarian
[52] = test system: HCT-15 colon
[53] = test system: EKVX NSCLC
[54] = test system: UACC-62 melanoma
[55] = test system: 786-0 renal
[56] = test system: SNB-75 CNS

CCOC(=O)C(C)(C)Oc1ccc(Cl)cc1
TGI [1]: > 1000 µM
TGI [2]: > 1000 µM
TGI [3]: > 1000 µM
TGI [4]: > 1000 µM
TGI [5]: 294 µM
TGI [6]: > 1000 µM
TGI [7]: > 1000 µM
TGI [8]: > 1000 µM
TGI [9]: 459 µM
TGI [10]: > 1000 µM
TGI [11]: 325 µM
TGI [12]: > 1000 µM
TGI [13]: > 1000 µM
TGI [14]: > 1000 µM
TGI [15]: > 1000 µM
TGI [16]: 392 µM
TGI [17]: > 1000 µM
TGI [18]: > 1000 µM
TGI [19]: > 1000 µM
TGI [20]: > 1000 µM
TGI [21]: > 1000 µM
TGI [22]: > 1000 µM
TGI [23]: 433 µM
TGI [24]: > 1000 µM
TGI [25]: 682 µM
TGI [26]: > 1000 µM
TGI [27]: 329 µM
TGI [28]: > 1000 µM
TGI [29]: > 1000 µM
TGI [30]: > 1000 µM
TGI [31]: 650 µM
TGI [32]: > 1000 µM
TGI [33]: > 1000 µM
TGI [34]: > 1000 µM
TGI [35]: 429 µM
TGI [36]: > 1000 µM
TGI [37]: > 1000 µM
TGI [38]: > 1000 µM
TGI [39]: > 1000 µM
TGI [40]: > 1000 µM
TGI [41]: 496 µM
TGI [42]: > 1000 µM
TGI [43]: > 1000 µM
TGI [44]: > 1000 µM
TGI [45]: > 1000 µM
TGI [46]: > 1000 µM
TGI [47]: > 1000 µM
TGI [48]: > 1000 µM
TGI [49]: 591 µM
TGI [50]: > 1000 µM
TGI [51]: > 1000 µM
TGI [52]: > 1000 µM
TGI [53]: > 1000 µM
TGI [54]: > 1000 µM
TGI [55]: > 1000 µM
TGI [56]: > 1000 µM

Reference: PubChem BioAssay (NCI)
